Measurements reported in patent US5627270A, “Glycosylated steroid derivatives for transport across biological membranes and process for making and using same” (Trustees of Princeton University, priority 1994, dated 1997).
Read-outs that look alike come from different tables or passages of the source.

Assays:
[1] = test system: DH2 cells (a mutant strain of E. coli K-12); format: cell-based; conditions: for EFFECT (enhancement of erythromycin): compound 20 mM; for enhancing effect on erythromycin: test compound 20 mM; on EFFECT (enhancement of erythromycin): key: --: erythromycin alone at 1.0 mM (baseline) and all lesser effects; +: enhancement relative to baseline; +++: significant enhancement relative to baseline
[2] = ASSAY I: leakage of carboxyfluorescein from vesicles; format: biochemical; conditions: for efficacy in permeabilizing phospholipid membranes: concentrations required for >50% leakage taken as measure
[3] = ASSAY II: proton transport across lipid membranes; format: biochemical
[4] = 0.000579 mM final concentration

| Compound | % increase in Fluorescence ([2]; 0.117 mM final concentration) [%] | % Decrease in Fluorescence ([3]; 0.0116 mM final concentration) [%] | % Decrease in Fluorescence ([3]; 0.00579 mM final concentration) [%] | other results |
| --- | --- | --- | --- | --- |
| C[C@H](CCC(=O)O)[C@H]1CC[C@H]2[C@@H]3[C@H](O[C@H]4O[C@H](CO)[C@@H](O)[C@H](O)[C@H]4O)C[C@@H]4C[C@H](O)CC[C@]4(C)[C@H]3C[C@H](O[C@H]3O[C@H](CO)[C@@H](O)[C@H](O)[C@H]3O)[C@]12C [3α-OH-cis-5,10-bis-α,α-glucosyl cholic acid K^+] | – | – | – | EFFECT (enhancement of erythromycin) ([1]; erythromycin 0.5 mM): +; EFFECT (enhancement of erythromycin) ([1]; erythromycin 1.0 mM): + |
| C[C@H](CCC(=O)O)[C@H]1CC[C@H]2[C@@H]3[C@H](O)C[C@@H]4C[C@H](O)CC[C@]4(C)[C@H]3CC[C@]12C [Chenodeoxycholic Acid, reference compound] | 17.7 | 8.2 | – | % increase in Fluorescence ([2]; 1.17 mM final concentration): 80.9%; efficacy in permeabilizing phospholipid membranes [2]: also permeabilize membranes in this assay, although at much higher concentrations; enhancing effect on erythromycin [1]: did not have a detectable effect |
| C[C@H](CCC(=O)O)[C@H]1CC[C@H]2[C@@H]3[C@H](O)C[C@@H]4C[C@H](O)CC[C@]4(C)[C@H]3C[C@H](O)[C@]12C [Cholic Acid, reference compound] | 0 | – | – | % increase in Fluorescence ([2]; 2.341 mM final concentration): 59.1%; efficacy in permeabilizing phospholipid membranes [2]: also permeabilize membranes in this assay, although at much higher concentrations; % Decrease in Fluorescence [3]: 1.0%; enhancing effect on erythromycin [1]: did not have a detectable effect |
| C[C@H](CCC(=O)O)[C@H]1CC[C@H]2[C@@H]3CC[C@@H]4C[C@H](O)CC[C@]4(C)[C@H]3C[C@H](O)[C@]12C [Deoxycholic Acid, reference compound] | – | – | – | efficacy in permeabilizing phospholipid membranes [2]: also permeabilize membranes in this assay, although at much higher concentrations; EFFECT (enhancement of erythromycin) ([1]; erythromycin 0.5 mM): +; EFFECT (enhancement of erythromycin) ([1]; erythromycin 1.0 mM): +; enhancing effect on erythromycin [1]: showed any effect |
| CCOC(=O)O[C@@H]1CC[C@@]2(C)[C@@H](C1)C[C@@H](O[C@H]1O[C@H](CO)[C@@H](O)[C@H](O)[C@H]1O)[C@@H]1[C@@H]2C[C@H](O[C@H]2O[C@H](CO)[C@@H](O)[C@H](O)[C@H]2O)[C@]2(C)[C@@H]([C@H](C)CCC(=O)OC)CC[C@@H]12 [Entry 1, 3α-ethylcarbonate-cis-5,10-bis-α,α-7,12-glucosyl cholic acid methyl ester] | 0 | 7.6 | 4.3 | – |
| C[C@H](CCC(=O)O)[C@H]1CC[C@H]2[C@@H]3[C@H](O[C@H]4O[C@H](CO)[C@@H](O)[C@H](O)[C@H]4O)C[C@@H]4C[C@H](O)CC[C@]4(C)[C@H]3C[C@H](O[C@H]3O[C@H](CO)[C@@H](O)[C@H](O)[C@H]3O)[C@]12C [Entry 3, 3α-hydroxy-cis-5,10-bis-α,α-7,12-glucosyl cholic acid] | – | 35.4 | 21.0 | % increase in Fluorescence ([2]; 2.34 mM final concentration): 0% |
| COC(=O)CC[C@@H](C)[C@H]1CC[C@H]2[C@@H]3[C@H](O[C@H]4O[C@H](CO)[C@@H](O)[C@H](O)[C@H]4O)C[C@@H]4C[C@H](O)CC[C@]4(C)[C@H]3C[C@H](O[C@H]3O[C@H](CO)[C@@H](O)[C@H](O)[C@H]3O)[C@]12C [Entry 4, 3α-hydroxy-cis-5,10-bis-α,α-7,12-glucosyl cholic acid methyl ester] | 0 | 12.3 | 7.89 | – |
| C[C@H](CCC(=O)NC(Cc1c[nH]c2ccccc12)C(=O)O)[C@H]1CC[C@H]2[C@@H]3[C@H](O[C@H]4O[C@H](CO)[C@@H](O)[C@H](O)[C@H]4O)C[C@@H]4C[C@H](O)CC[C@]4(C)[C@H]3C[C@H](O[C@H]3O[C@H](CO)[C@@H](O)[C@H](O)[C@H]3O)[C@]12C (stereo partly drawn) [Entry 5, 3α-hydroxy-cis-5,10-bis-α,α-7,12-glucosyl-25-tryptophanyl cholic acid] | 57.3 | 26.1 | 19.4 | – |
| COC(=O)CC[C@@H](C)[C@H]1CC[C@H]2[C@@H]3[C@H](O[C@H]4O[C@H](CO)[C@@H](O)[C@H](O)[C@H]4O)C[C@@H]4C[C@H](OC(=O)c5ccccc5)CC[C@]4(C)[C@H]3C[C@H](O[C@H]3O[C@H](CO)[C@@H](O)[C@H](O)[C@H]3O)[C@]12C [Entry 7, 3α-O-benzoyl-cis-5,10-bis-α,α-7,12-glucosyl cholic acid methyl ester] | 89.1 | 19.8 | 15.2 | efficacy in permeabilizing phospholipid membranes [2]: the most effective glycosylated steroids tested |
| COC(=O)CC[C@@H](C)[C@H]1CC[C@H]2[C@@H]3[C@H](O[C@@H]4O[C@H](CO)[C@@H](O)[C@H](O)[C@H]4O)C[C@H]4C[C@H](OC(=O)c5ccccc5)CC[C@]4(C)[C@H]3C[C@H](O[C@@H]3O[C@H](CO)[C@@H](O)[C@H](O)[C@H]3O)[C@]12C [Entry 9, 3α-O-benzoyl-trans-5,10-bis-β,β-7,12-glucosyl cholic acid methyl ester] | 24.5 | 43.0 | 27.4 | – |
| C[C@H](CCC(=O)O)[C@H]1CC[C@H]2[C@@H]3[C@H](O[C@@H]4O[C@H](CO)[C@@H](O)[C@H](O)[C@H]4O)C[C@@H]4C[C@H](O)CC[C@]4(C)[C@H]3C[C@H](O[C@@H]3O[C@H](CO)[C@@H](O)[C@H](O)[C@H]3O)[C@]12C [Entry 10, 3α-hydroxy-cis-5,10-bis-β,β-7,12-glucosyl cholic acid] | 0 | – | – | – |
| C[C@H](CCC(=O)O)[C@H]1CC[C@H]2[C@@H]3[C@H](O[C@@H]4O[C@H](CO)[C@@H](O)[C@H](O)[C@H]4O)C[C@H]4C[C@H](O)CC[C@]4(C)[C@H]3C[C@H](O[C@@H]3O[C@H](CO)[C@@H](O)[C@H](O)[C@H]3O)[C@]12C [Entry 13, 3α-hydroxy-trans-5,10-bis-β,β-7,12-glucosyl cholic acid] | 0 | 70.6 | 35.2 | % Decrease in Fluorescence [3, 4]: 2.8% |
| COC(=O)CC[C@@H](C)[C@H]1CC[C@H]2[C@@H]3[C@H](O)C[C@@H]4C[C@H](O)CC[C@]4(C)[C@H]3C[C@H](O)[C@]12C [Methyl Cholate, reference compound] | 25.4 | 5.4 | – | – |
| Gramicidin [reference compound] | – | – | 87.2 | % Decrease in Fluorescence [3, 4]: 81.6% |
